Test [1] deals with T1, PRMT5/MEP50 (Homo sapiens, UniProt O14744). The experiment in a line: PRMT5/MEP50 enzyme inhibition assay, Assay 1 (radioisotope filter binding, 3H-SAM, histone H2A). It counts as biochemical. To be noted: 1 μM 3H-SAM, 5 μM histone H2A, 60 min at 30° C. On the procedure:
Compounds were tested for inhibition of methyltransferase activity in a radioisotope filter binding assay, similar to previously described in A selective inhibitor of PRMT5 with in vivo and in vitro potency in MCL models. Chan-Penebre et al., Nat Chem Biol. (2015) 11(6):432-7. In the standard PRMT5/MEP50 enzyme inhibition assay, compounds were tested in a 10-dose IC50 mode with 3- or 5-fold serial dilution, in singlet, starting at 1, 10, or 100 μM. Control compound, SAH (S-(5′-Adenosyl)-L-homocysteine), was tested in 10-dose IC50 mode with 3-fold serial dilution starting at 100 μM. Reactions were carried out at 1 μM 3H-SAM (PerkinElmer) and 5 μM histone H2A as substrates for methyl transfer. Following a 60 min incubation at 30° C., the reaction was stopped with 20% TCA. Each reaction was spotted on a filter plate (MultiScreen FB Filter plate, Millipore) and washed 5 times in PBS, after which scintillation fluid was added and signal was detected in a scintillation counter. Percent enzyme activity was calculated based on no inhibitor DMSO control as 100% activity. EC50 values were determined in GraphPad Prism 8 using the [inhibitor] vs. response—Variable slope (four parameters) function.
(§1) Compounds of Formula (I) show activity in this assay. A value of ‘A’ in the table below indicates an IC50 of <1 nM, a value of ‘B’ indicates an IC50≥1 nM to ≤100 nM, and a value of ‘C’ indicates an IC50 value of >100 nM.

Test [2] addresses T1, PRMT5/MEP50. Put plainly: PRMT5/MEP50 enzyme inhibition assay, Assay 2 (384-well, MALDI mass spectrometry, SAM, histone H4 1-21 peptide). It counts as biochemical. As to conditions: 1 μM SAM, 0.1 μM histone H4 1-21 peptide, 18-hour incubation at rt. As for the experimental part:
Compounds were tested for inhibition of methyltransferase activity in 384-well plate assay format using mass spectrometry technology. In this enzyme inhibition assay, compounds were tested in a 11-dose IC50 mode with 3-serial dilution, in duplicate, starting at 1, 10, or 100 μM. Reactions were carried out at 1 μM SAM and 0.1 μM histone H4 1-21 peptide as substrates for methyl transfer. Following an 18-hour incubation at rt, the reaction was stopped with 0.5% formic acid. Products of the reaction were captured while unreacted substrates were washed away, prior to MALDI mass spectrometry detection and analysis. Percent enzyme activity was calculated based on no inhibitor DMSO control as 100% activity. EC50 values were determined in GraphPad Prism 8 using the [inhibitor] vs. response—Variable slope (four parameters) function.
as §1

Test [3] concerns A549 lung carcinoma cells. Put plainly: Cell proliferation assay A549 (CellTiter-Glo, 7 days). As to conditions: Homo sapiens, A549, 168 h, A549, 7 days, cell viability CellTiter-Glo 2.0. The format is cell-based. On the procedure:
(§2) HepG2 hepatoma cells (ATCC, HB-8065) were maintained in DMEM with high glucose (Lonza, 12-914F) supplemented with 10% fetal bovine serum (FBS; Biowest, S181B-500) and 2 mM L-glutamine (Biowest, X0551-100) at 37° C. and 5% CO2. A549 lung carcinoma cells (ATCC, CCL-185) were maintained in F-12K medium (ThermoFisher 21127030) supplemented with 10% FBS at 37° C. and 5% CO2. Exponentially growing HepG2 or A549 were plated in white, clear-bottom 96-well plates (Corning, 3903) at a cell density of 2000 (HepG2) or 350 (A549) cells per well in 199 μL of HepG2 medium. Next, 1 μL of a 5-fold 9-point dilution series of test compound in DMSO was added to the different wells. Cells were incubated at 37° C. 5% CO2 for 7 days. Cell viability was assessed on day 7 with the CellTiter-Glo 2.0 Cell Viability assay kit (Promega, G9243) to quantify the intracellular amounts of ATP: first, 100 μL of cell culture medium was removed from each well, next 100 μL of CellTiter-Glo® 2.0 Reagent was added and plates were shaken for 2 minutes on an orbital shaker. After 10 minutes stabilization at room temperature, read-out was performed on a ThermoFisher VarioSkan Lux plate reader. Counts were normalized to DMSO control (0% inhibition) and the cytotoxic control (100% inhibition) and EC50 values were determined in GraphPad Prism 8 using the [Agonist] vs. response—Variable slope (four parameters) function.
(§3) As shown by the data of Table 2, compounds of Formula (I) have activity in this assay. A value of ‘A’ in the table below indicates an EC50 of <20 nM, a value of ‘B’ indicates an EC50≥20 nM to <100 nM, a value of ‘C’ indicates an EC50 value of EC50≥100 nM to <1000 nM and a value of ‘D’ indicates an EC50≥1000 nM

For a further test, the system named is HepG2 hepatoma cells. The experiment in a line: Cell proliferation assay HepG2 (CellTiter-Glo, 7 days). As to conditions: Homo sapiens, 168 h; HepG2, 7 days, cell viability CellTiter-Glo 2.0. It counts as cell-based. As for the experimental part:
as §2, §3

T1 sequence (O14744 whole entry): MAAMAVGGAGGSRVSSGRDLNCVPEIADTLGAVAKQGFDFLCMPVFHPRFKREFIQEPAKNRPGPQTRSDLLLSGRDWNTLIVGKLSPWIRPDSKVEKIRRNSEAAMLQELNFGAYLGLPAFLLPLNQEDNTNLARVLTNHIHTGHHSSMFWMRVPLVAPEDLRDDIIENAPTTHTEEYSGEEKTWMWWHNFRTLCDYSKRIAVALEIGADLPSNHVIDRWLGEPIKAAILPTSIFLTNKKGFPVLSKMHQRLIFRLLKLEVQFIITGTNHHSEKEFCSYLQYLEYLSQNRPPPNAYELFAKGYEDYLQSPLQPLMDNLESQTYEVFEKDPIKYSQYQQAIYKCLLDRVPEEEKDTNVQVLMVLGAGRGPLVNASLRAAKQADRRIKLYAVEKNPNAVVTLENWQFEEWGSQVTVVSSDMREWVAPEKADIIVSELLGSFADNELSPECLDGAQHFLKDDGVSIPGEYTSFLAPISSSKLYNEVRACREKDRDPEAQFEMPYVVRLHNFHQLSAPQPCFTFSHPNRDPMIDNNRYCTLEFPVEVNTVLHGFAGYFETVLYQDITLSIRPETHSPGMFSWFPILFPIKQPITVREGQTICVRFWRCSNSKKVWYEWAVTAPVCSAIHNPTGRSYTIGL
T1 sequence (Q9BQA1 whole entry partner): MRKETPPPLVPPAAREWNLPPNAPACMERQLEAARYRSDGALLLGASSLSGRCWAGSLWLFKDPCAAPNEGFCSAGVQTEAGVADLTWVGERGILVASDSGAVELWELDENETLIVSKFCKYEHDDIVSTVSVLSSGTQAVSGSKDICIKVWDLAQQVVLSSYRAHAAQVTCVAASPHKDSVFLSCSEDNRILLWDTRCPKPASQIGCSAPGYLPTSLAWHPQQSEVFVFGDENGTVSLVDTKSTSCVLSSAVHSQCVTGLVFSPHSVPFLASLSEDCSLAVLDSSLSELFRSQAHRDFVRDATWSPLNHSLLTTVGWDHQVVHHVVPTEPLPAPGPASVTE

Consider `C[C@@H]1[C@H](CCc2ccc3ccc(N)nc3c2)[C@@H](O)[C@@H](O)[C@@H]1n1ccc2c(N)ncnc21` [Compound 6], for which the half-inhibitory concentration (IC50) at PRMT5/MEP50 [1] and on PRMT5/MEP50 [2] was 1 to 100 nM each time. In addition, the concentration giving a half-maximal response (EC50) (in test [3]; in the test on HepG2 hepatoma cells) was no less than 1000 nM each time.

These data come from patent US20220112194A1, “COMPOUNDS TARGETING PRMT5” (ALIGOS THERAPEUTICS, INC., priority 2020, published 2022).
